Test results taken from patent US7863289B2, “Compounds and methods for kinase modulation, and indications therefor” (Plexxikon, Inc., priority 2006, dated 2011).

Key:
Assay type in all cases: biochemical
Kdr = Kdr (Homo sapiens, UniProt P35968); assay: Kinase activity assay, Kdr; settings: under the test conditions employed; read-out: activity toward kinase Kdr, IC50
Description: (§1) Assays for the activity of kinases, including, but not limited to, B-Raf, B-Raf V600E, B-Raf […] and c-Raf-1 are known in the art, for example as described in U.S. patent application Ser. No. 11/473,347 (see Iso, PCT publication WO2007002433), the disclosure of which is hereby incorporated by reference in its entirety.

B-Raf V600E = B-Raf V600E (Homo sapiens, UniProt P15056, V600E); assay: Kinase activity assay, B-Raf V600E; settings: under the test conditions employed; read-out: activity toward kinase B-Raf V600E, IC50
Description: as §1

Flt1 = Flt1 (Homo sapiens, UniProt P17948); assay: Kinase activity assay, Flt1; settings: under the test conditions employed; read-out: activity toward kinase Flt1, IC50
Description: as §1

Kit = Kit (Homo sapiens, UniProt P10721); assay: Kinase activity assay, Kit; settings: under the test conditions employed; read-out: activity toward kinase Kit, IC50
Description: as §1

Fms = Fms (Homo sapiens, UniProt P07333); assay: Kinase activity assay, Fms; settings: under the test conditions employed; read-out: activity toward kinase Fms, IC50
Description: as §1

Jnk1 = Jnk1 (Homo sapiens, UniProt P45983); assay: Kinase activity assay, Jnk1; settings: under the test conditions employed; read-out: activity toward kinase Jnk1, IC50
Description: as §1

B-Raf = B-Raf (Homo sapiens, UniProt P15056); assay: Kinase activity assay, B-Raf; settings: under the test conditions employed; read-out: activity toward kinase B-Raf, IC50
Description: as §1

HGK = HGK (Homo sapiens, UniProt O95819); assay: Kinase activity assay, HGK; settings: under the test conditions employed; read-out: activity toward kinase HGK, IC50
Description: as §1

c-Raf-1 = c-Raf-1 (Homo sapiens, UniProt P04049); assay: Kinase activity assay, c-Raf-1; settings: under the test conditions employed; read-out: activity toward kinase c-Raf-1, IC50
Description: as §1

Src = Src (Homo sapiens, UniProt P12931); assay: Kinase activity assay, Src; settings: under the test conditions employed; read-out: activity toward kinase Src, IC50
Description: as §1

Btk = Btk (Homo sapiens, UniProt Q06187); assay: Kinase activity assay, Btk; settings: under the test conditions employed; read-out: activity toward kinase Btk, IC50
Description: as §1

TEC = target: T1, TEC (Homo sapiens, UniProt P42680); assay: Kinase activity assay, TEC; settings: under the test conditions employed; read-out: activity toward kinase TEC, IC50
T1 sequence (P42680 1-631): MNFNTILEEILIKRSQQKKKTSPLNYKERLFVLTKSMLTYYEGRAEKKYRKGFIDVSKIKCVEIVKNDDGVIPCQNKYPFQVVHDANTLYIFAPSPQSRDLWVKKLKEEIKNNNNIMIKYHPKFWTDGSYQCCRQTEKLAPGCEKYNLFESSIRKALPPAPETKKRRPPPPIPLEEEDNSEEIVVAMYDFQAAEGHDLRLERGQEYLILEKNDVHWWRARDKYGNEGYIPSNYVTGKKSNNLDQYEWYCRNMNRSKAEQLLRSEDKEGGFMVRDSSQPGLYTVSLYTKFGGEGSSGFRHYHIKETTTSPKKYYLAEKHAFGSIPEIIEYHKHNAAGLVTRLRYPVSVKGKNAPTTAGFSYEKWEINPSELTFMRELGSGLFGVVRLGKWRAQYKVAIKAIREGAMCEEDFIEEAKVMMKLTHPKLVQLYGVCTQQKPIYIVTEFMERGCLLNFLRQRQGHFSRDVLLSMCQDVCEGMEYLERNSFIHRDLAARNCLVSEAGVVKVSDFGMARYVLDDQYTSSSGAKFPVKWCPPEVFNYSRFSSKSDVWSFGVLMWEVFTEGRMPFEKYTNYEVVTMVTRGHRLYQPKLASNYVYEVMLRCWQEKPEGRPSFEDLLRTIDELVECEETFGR
Description: as §1

Measured: IC50

Kit, sequence (P10721 26-976): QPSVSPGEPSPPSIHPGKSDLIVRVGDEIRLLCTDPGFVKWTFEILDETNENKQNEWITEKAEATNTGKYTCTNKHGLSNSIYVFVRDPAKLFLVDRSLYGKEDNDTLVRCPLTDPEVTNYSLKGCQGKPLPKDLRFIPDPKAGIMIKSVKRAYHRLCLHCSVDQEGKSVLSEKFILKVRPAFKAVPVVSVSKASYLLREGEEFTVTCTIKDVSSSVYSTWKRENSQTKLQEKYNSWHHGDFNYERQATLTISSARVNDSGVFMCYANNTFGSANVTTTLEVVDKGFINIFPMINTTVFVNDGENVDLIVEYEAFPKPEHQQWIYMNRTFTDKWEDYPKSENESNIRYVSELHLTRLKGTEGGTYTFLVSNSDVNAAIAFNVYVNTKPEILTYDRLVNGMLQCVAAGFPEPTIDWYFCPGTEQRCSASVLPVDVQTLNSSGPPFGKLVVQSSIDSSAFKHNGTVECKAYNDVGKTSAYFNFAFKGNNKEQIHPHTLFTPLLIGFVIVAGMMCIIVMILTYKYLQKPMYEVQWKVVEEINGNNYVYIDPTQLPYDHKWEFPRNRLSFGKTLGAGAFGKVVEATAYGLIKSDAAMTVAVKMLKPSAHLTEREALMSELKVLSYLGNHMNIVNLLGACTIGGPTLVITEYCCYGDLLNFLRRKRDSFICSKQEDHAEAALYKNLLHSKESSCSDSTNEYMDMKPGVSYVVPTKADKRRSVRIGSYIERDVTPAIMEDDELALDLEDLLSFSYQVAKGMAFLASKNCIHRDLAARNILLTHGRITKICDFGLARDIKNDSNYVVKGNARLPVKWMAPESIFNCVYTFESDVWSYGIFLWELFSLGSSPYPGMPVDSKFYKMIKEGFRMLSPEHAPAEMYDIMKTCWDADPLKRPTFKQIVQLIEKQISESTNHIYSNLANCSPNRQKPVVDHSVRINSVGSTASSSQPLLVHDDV
B-Raf V600E, sequence (P15056 whole entry V600E): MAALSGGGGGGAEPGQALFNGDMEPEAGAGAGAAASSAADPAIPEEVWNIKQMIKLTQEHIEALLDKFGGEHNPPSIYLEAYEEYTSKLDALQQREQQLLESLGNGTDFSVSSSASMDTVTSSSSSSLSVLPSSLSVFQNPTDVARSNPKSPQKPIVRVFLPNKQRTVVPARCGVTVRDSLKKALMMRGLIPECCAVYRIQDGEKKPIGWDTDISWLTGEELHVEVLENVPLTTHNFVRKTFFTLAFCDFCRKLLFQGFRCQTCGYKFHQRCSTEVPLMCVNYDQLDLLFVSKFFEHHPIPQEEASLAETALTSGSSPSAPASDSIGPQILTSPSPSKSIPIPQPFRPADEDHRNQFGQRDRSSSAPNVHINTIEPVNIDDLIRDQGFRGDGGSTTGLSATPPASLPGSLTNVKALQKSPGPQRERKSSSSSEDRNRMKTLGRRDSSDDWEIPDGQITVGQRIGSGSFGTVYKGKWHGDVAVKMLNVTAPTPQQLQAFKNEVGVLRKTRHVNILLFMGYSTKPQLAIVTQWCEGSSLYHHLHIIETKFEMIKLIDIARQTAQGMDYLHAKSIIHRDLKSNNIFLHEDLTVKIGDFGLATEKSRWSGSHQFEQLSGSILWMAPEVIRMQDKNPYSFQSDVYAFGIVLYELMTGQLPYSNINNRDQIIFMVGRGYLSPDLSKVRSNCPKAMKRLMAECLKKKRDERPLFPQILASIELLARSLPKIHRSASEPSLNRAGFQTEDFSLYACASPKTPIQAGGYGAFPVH
B-Raf, sequence (P15056 whole entry): as the sequence (P15056 whole entry V600E) above, with E600V counted along it
Src, sequence (P12931 whole entry): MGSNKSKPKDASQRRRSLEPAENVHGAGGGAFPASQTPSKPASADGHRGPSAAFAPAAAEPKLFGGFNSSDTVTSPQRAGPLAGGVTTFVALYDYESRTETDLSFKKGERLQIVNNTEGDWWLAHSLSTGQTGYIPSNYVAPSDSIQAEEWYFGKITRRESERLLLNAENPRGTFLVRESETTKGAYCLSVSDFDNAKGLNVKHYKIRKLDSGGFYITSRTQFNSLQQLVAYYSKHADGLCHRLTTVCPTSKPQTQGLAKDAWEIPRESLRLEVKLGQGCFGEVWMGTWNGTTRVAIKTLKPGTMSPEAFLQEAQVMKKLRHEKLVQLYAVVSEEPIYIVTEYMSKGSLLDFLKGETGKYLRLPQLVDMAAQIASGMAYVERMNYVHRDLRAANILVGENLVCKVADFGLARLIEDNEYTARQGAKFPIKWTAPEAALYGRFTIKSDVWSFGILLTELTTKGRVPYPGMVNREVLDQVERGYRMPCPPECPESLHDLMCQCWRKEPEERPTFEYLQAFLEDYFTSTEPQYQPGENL
Fms, sequence (P07333 20-972): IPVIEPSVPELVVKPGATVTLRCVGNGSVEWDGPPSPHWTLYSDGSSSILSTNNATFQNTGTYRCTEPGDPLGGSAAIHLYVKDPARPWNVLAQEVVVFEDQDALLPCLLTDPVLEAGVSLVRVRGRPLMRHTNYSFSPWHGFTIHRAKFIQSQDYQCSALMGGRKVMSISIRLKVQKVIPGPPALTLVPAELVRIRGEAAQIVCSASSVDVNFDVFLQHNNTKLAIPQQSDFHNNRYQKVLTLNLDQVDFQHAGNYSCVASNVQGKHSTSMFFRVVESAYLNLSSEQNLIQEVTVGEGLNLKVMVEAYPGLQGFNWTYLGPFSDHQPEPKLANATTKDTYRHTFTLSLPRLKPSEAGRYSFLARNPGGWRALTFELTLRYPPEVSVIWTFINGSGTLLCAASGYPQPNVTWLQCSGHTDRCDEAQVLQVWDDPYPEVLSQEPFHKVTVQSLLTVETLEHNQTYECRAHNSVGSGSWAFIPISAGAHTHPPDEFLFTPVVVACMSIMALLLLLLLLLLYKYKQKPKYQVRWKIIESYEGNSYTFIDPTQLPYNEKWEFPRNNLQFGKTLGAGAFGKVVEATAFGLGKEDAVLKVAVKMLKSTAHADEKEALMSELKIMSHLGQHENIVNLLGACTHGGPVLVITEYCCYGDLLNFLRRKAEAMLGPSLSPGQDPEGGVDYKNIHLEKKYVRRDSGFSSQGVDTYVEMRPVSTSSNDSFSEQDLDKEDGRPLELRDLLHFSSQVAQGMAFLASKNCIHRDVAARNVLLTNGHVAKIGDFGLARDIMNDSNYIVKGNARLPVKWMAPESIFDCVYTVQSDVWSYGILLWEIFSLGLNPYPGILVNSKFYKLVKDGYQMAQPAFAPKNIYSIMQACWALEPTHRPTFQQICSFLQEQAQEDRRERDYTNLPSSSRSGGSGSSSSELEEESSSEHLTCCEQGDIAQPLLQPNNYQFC
c-Raf-1, sequence (P04049 whole entry): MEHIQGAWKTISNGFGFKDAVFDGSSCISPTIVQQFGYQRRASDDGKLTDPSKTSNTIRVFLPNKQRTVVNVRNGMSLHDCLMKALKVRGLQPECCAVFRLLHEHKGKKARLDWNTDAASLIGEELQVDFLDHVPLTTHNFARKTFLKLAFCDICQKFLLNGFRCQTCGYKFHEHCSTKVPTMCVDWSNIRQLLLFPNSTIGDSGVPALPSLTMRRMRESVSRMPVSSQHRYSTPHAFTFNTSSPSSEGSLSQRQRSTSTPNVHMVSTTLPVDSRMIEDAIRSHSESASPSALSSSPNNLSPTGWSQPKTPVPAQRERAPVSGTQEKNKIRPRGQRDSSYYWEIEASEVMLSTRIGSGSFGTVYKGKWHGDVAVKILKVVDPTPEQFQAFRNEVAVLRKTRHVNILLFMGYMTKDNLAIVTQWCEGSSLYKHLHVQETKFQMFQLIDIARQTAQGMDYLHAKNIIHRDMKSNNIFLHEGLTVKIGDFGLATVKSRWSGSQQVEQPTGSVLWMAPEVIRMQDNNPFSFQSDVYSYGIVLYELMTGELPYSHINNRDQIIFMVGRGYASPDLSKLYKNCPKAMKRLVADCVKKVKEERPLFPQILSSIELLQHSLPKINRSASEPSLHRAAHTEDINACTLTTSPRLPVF
Jnk1, sequence (P45983 whole entry): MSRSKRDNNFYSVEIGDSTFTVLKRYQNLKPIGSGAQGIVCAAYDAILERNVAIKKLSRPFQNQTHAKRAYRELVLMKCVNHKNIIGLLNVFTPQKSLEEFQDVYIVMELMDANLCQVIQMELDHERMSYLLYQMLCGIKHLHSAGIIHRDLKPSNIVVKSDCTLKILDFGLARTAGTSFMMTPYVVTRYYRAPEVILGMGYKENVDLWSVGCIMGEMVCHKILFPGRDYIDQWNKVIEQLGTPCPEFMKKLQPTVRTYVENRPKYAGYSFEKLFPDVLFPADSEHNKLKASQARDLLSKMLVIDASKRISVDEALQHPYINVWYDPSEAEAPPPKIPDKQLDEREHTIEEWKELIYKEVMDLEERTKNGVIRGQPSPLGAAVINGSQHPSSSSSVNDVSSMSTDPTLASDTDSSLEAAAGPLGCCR
Btk, sequence (Q06187 whole entry): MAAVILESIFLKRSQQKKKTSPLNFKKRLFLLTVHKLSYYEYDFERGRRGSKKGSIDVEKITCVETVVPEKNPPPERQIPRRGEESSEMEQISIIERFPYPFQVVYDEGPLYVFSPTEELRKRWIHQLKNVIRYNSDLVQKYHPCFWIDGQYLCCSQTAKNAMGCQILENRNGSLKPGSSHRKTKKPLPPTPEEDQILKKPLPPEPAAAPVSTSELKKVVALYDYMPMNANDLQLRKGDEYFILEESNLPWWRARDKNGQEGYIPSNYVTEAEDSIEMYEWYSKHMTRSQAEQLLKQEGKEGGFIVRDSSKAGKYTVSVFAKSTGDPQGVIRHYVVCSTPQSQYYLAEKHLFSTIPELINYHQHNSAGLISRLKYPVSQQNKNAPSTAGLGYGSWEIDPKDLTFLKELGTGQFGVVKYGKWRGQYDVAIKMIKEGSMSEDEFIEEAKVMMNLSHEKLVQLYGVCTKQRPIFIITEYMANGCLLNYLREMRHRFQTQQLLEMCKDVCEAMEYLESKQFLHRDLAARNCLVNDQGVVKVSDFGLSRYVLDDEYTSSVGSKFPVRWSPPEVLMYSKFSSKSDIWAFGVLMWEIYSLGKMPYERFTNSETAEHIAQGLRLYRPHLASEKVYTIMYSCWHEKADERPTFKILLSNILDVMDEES

Cn1cc(-c2cnc3[nH]cc(C(=O)c4c(F)ccc(NS(=O)(=O)c5cccc(OC(F)F)c5)c4F)c3c2)cn1 [Compound P-0020]
not listed: TEC
≤ 10 µM: all other assays above

O=C(c1c(F)ccc(NS(=O)(=O)c2cccc(OC(F)F)c2)c1F)c1c[nH]c2ncc(Cl)cc12 [Compound P-0016, N-[3-(5-Chloro-1H-pyrrolo[2,3-b]pyridine-3-carbonyl)-2,4-difluoro-phenyl]-3-difluoromethoxy-benzenesulfonamide]
not listed: Jnk1 | HGK | Btk
≤ 10 µM: all other assays above
